PubChem BioAssay AID2305 (GlaxoSmithKline (GSK), 2010)
“And” between values parts separate entries of the source, which are not always exact repeats. Equal values may be shown once.

System: P. falciparum 3D7 growth, pLDH absorbance
Test: blood-stage malaria parasite growth potency – strain 3D7, dose response (AID 2305)

Structure (SMILES) | IC50
CCOC(=O)c1[nH]c(-c2cccc(F)c2)nc1N | 750 nM
COc1ccc2c(=O)c(Br)c(C)[nH]c2c1 | 190 nM
COc1cccc(OC)c1CN1CCC(N(C)CCCCCCCCCN2CCC(OC(=O)Nc3ccccc3-c3ccccc3)CC2)CC1 | 320 nM
O=C(CCCCCNC(=O)c1ccc(O)c(-c2cccc(C(F)(F)F)c2)c1)NCCN1CCCCC1 | 890 nM
COc1ccc(NC(=O)[C@H](CC(C)C)Nc2cc(C)nc(NCCc3cccs3)n2)cc1 | 960 nM
CCCC(C)Nc1nc(C)cc(N[C@@H](Cc2ccccc2)C(=O)NCc2ccc(C)cc2)n1 (stereo not given in full) | 1120 nM
COc1ccc(Nc2nc(NN=Cc3cc(Cl)ccc3O)nc(Nc3ccccc3)n2)cc1 | 650 nM
CCCc1cn2c3c(cc(C(=O)N[C@@H](Cc4ccccc4)[C@H](O)CNC4CCOCC4)cc13)N(C)S(=O)(=O)CC2 | 50 nM
COc1ccc(NC(=O)Nc2ccc(Nc3nc(C)cc(N(C)C)n3)cc2)cc1 | 450 nM
COc1ccc(CN2CCCN(Cc3ccc(C(=O)Nc4ccc(Cl)cc4)cc3)CC2)cc1 | 920 nM
CCOCn1c(-c2ccccc2)cc2c3c(N)nc(N)nc3ccc21 | 190 nM
CCc1cn2c3c(cc(C(=O)N[C@@H](Cc4cccc(F)c4)[C@H](O)CNC4CC4)cc13)N(C)S(=O)(=O)CC2 | 140 nM
COc1ccc(OCC(=O)Nc2cc(-c3nc4ccccc4[nH]3)ccc2Cl)cc1 | 900 nM
C=CCN(C(=O)c1ccc(Cl)c([N+](=O)[O-])c1)c1nc(-c2ccccc2)cs1 | 400 nM
COc1ccc(NC(=O)Nc2ccc(-c3ccccc3)cc2Cl)cc1N1CCN(C)CC1 | 870 nM
N#Cc1ccc(-c2ccc(C(=O)NC3CCN(CCN4CCc5c(cccc5C(F)(F)F)C4)CC3)cc2)cc1 | 700 nM
FC(F)(F)c1ccc2nc(-c3cccc(-c4cccc(CNCCc5ccncc5)c4)c3)[nH]c2c1 | 140 nM
COc1ccc2ccccc2c1C=NNc1cc(C)nc2cc(C(F)(F)F)ccc12 | 1040 nM
CC(=O)N1N=C(c2ccccc2)Sc2c1nc(-c1ccc(Cl)cc1)n2C(C)=O | 990 nM
COc1ccc(C2CCN(CCCCNC(=O)c3ccc(NC(=O)c4ccc(Cl)cc4)cc3)CC2)c(C)c1 | 750 nM
CC1(C)N=C(N)N=C(N)N1OCCCOc1ccc(N)cc1 | 10 nM
O=C(Nc1ccccc1Br)c1cn(-c2ccccc2)nc1-c1cccc([N+](=O)[O-])c1 | 1320 nM
CC12CCC(=O)N1C(C(=O)Nc1cccc(C(=O)Nc3cccc(C(F)(F)F)c3)c1)CS2 (stereo not given) | 360 nM
CS(=O)(=O)Nc1cccc(-c2cnc3[nH]cc(-c4cccc(CN)c4)c3c2)c1 | 1660 nM
COc1ccc2ncc(C#N)c(CCN3CCC(NCc4cnc5c(c4)OCCO5)CC3)c2n1 | 600 nM

Structure (SMILES) | IC50
O=C(NCc1ccccc1)NC1CCN(c2ccnc3cc(Cl)ccc23)C1 (stereo not given) | 160 nM
Cc1ccc(-c2cc(C(=O)Nc3ccc(S(=O)(=O)N4CCCC(C)C4)cc3)[nH]n2)c(O)c1 (stereo not given) | 280 nM
O=C(C=Cc1ccc(Cl)c(Cl)c1)NCCCCCN1CCC(CCNC(=O)c2ccc3c(c2)OCO3)CC1 | 690 nM
Cc1cc(-c2cc(-c3ccc(OCCN(C)C)cc3)[nH]c2-c2ccc3c(c2)CCC3=NO)ccn1 | 870 nM
FC(F)(F)c1ccc2nc(-c3ccc(-c4cccc(CNCCN5CCNCC5)c4)cc3)[nH]c2c1 | 1030 nM
COc1ccc(CCNc2nc(NCCc3cnc[nH]3)nc(NCc3cccc4ccccc34)n2)cc1OC | 540 nM
N#Cc1cccc(NC(=O)Nc2cccc(-c3cccc(-c4nc5ccccc5[nH]4)c3)c2)c1 | 90 nM
CC[C@H]1CN(Cc2cccc(O)c2)CC[C@H]1CCCc1ccnc2ccc(O)cc12 | 530 nM
Clc1ccc(-n2cnc3c(Nc4ccc(Oc5ccccc5)cc4)ncnc32)cc1Cl | 750 nM
CCc1c(C)nc(-n2nc(C)cc2NC(=O)c2ccc(OC)cc2OC)[nH]c1=O | 830 nM
O=C(Nc1ccsc1)Nc1cccc(-c2ccc(-c3nc4ccc(C(F)(F)F)cc4[nH]3)cc2)c1 | 350 nM
Cc1cc(C(=O)CN2C(=O)NC(C)(c3cccc4ccccc34)C2=O)c(C)n1Cc1ccco1 (stereo not given) | 630 nM
CN1CCN(c2cc(-c3ccncc3)nc(-c3cccnc3)n2)CC1 | 810 nM
CCOc1cc(C(=O)Nc2ccc3nc(N(CC)CC)cc(C)c3c2)cc(OCC)c1OCC | 700 nM
O=C(NCCCCCN1CCC(c2c[nH]c3ccccc23)CC1)Nc1ccc(I)cc1 | 990 nM
CCOC(=O)CCCN1C(=O)CN=C(c2ccccc2)c2cc(Cl)ccc21 | 780 nM
CCOc1ccc(Nc2nc(N)c3ccccc3n2)cc1 | 1150 nM
Cc1cccc2[nH]c(-c3ccc(-c4ccc(CNCc5cccc(N)c5)cc4)s3)nc12 | 750 nM
Cc1ccc(Oc2ccc(CNc3nc(Nc4cccc(F)c4)nc(Nc4cccc(F)c4)n3)cc2)cc1 | 1210 nM
O=C(Nc1cccc(-c2nn3ncccc3c2-c2ccnc(Nc3cccnc3)n2)c1)c1c(F)cccc1F | 530 nM
N#Cc1cccc(C(=O)Nc2ccc(-c3cccc(CN4CCC(O)CC4)c3)cc2)c1 | 1000 nM
O=C(Nc1cccc(F)c1)c1ccc(C(=O)NC2CCN(CC3CCCCC3)CC2)cc1 | 860 nM
COc1cc2nc(N3CCC(NC(=O)c4cccc(N(C)C)c4)CC3)nc(N)c2cc1OC | 610 nM
Cc1nn(-c2cccc(Cl)c2)c2c1C(C(=O)c1ccc3c(c1)OCO3)CC(=O)N2 (stereo not given) | 370 nM
Cc1c(CNCCCNc2cc(=O)c3ccccc3[nH]2)sc(/C=N/O)c1Br | 1080 nM

Structure (SMILES) | IC50
CCCN(Cc1ccc(C)cc1)Cc1cc(=O)c2cc(Cl)ccc2[nH]1 | 1050 nM
CNCc1ccc(-c2cccc(CNCc3ccc(-c4ccccc4)cc3)c2)c(C(=O)OC)c1 | 980 nM
Cc1ccccc1C1CCN(C2CCC(NC(=O)/C=C/c3c(F)ccc(F)c3F)CC2)CC1 (stereo not given) | 1260 nM
COc1ccc(CCNCc2ccc3nc(N)cc(C)c3c2)cc1 | 210 nM
CCOc1c(Br)cc(Br)cc1CNCCCCNc1nc2ccccc2[nH]1 | 390 nM
CN1CCCN(Cc2ccc(-c3cccc(NC(=O)c4cccc(C#N)c4)c3)cc2)CC1 | 650 nM
COc1ccc2c(NN=Cc3ccc(F)cc3)cc(C)nc2c1 | 770 nM
NC(N)=NCCN(Cc1ccccc1)c1ccccc1 | 350 nM
Cn1ccnc1CNC(=O)c1ccc(-c2cccc(-c3nc4ccc(F)cc4[nH]3)c2)cc1 | 980 nM
CC1=C(C(=O)NC2CCC(CN3CCC(c4c[nH]c5ccccc45)CC3)CC2)Cc2ccccc21 (stereo not given) | 830 nM and 1000 nM
COc1ccc(-c2cc3ncnc(N4CCN(CCN5CCCC5)CC4)c3s2)cc1 | 830 nM
Oc1ccccc1CNCC(O)c1cc(C(F)(F)F)cc(C(F)(F)F)c1 (stereo not given) | 180 nM
O=C(NCc1cccc2ccccc12)c1ccc(CNC2CCN(Cc3ccccc3)CC2)cc1 | 840 nM
Cc1cnc(NCC2CCCCC2)nc1N[C@@H](CO)C(=O)Nc1ccccc1 | 1100 nM
CN1CCC(N(C)c2nccc(N3CCN(Cc4cncn4Cc4ccccc4)CC3)n2)CC1 | 700 nM
CN1CCN(CCCN(Cc2csc(-c3ccc(CNCc4ccccc4)cc3)n2)S(=O)(=O)c2ccccc2)CC1 | 770 nM
NS(=O)(=O)c1cccc(-c2ccc3c(=O)[nH]cnc3c2)c1 | 950 nM
O=C(/C=C/c1ccc(Cl)c(Cl)c1)N1CCC(NCc2c[nH]c3ccccc23)CC1 | 1070 nM
CN1CCc2ccc(NC(=O)Nc3ccc(-c4ccccc4)cc3)cc2C1 | 510 nM
COc1cc(N)c(Cl)cc1C(=O)NCC1CCN(c2nc(C)cc(C)n2)CC1 | 510 nM
CC(Oc1ccc(Cl)cc1)C(=O)Nc1cc(C(F)(F)F)ccc1N1CCOCC1 (stereo not given) | 530 nM
Cc1ccc(Nc2ccnc(Nc3ccc4c(c3)CS(=O)(=O)C4)n2)cc1O | 720 nM
Cc1cccc(-c2nn(-c3ccccc3)cc2C(=O)Nc2nnc(C)o2)c1 | 1160 nM
CC1(CCc2ccccc2)N=C(N)N=C(N)C1c1ccc(Cl)c(Cl)c1 (stereo not given) | 320 nM
O=C(/C=C/C=C/c1ccc(Cl)c(Cl)c1)NCCCCCN1CCCC2CCCCC21 (stereo not given) | 950 nM

Structure (SMILES) | IC50
COc1ccc(C(=O)N2CCC(C(=O)NC(C)c3ccc(-n4ccnc4)cc3)CC2)c2ccccc12 (stereo not given) | 1130 nM
CC(C)c1ccc(NC(=O)c2ccc(C(=O)NC3CCN(Cc4ccsc4)C3)cc2)cc1 (stereo not given) | 1030 nM
NCc1cccc(-c2ccccc2CNC2CCN(Cc3ccccc3)CC2)c1 | 770 nM
O=C(NCc1ccccc1)c1nn(CCCN2CCC(N3CCCC3)CC2)cc1-c1ccc(Cl)c(Cl)c1 | 670 nM
O=C(/C=C/c1ccc(Cl)c(Cl)c1)NCCCCCN1CC[C@H](NC(=O)/C=C/c2ccccc2)C1 | 1000 nM
CN(C)CCN(C)Cc1cccc(-c2cccc(NC(=O)c3cccc(C#N)c3)c2)c1 | 870 nM
O=C(NC1CCCCN(Cc2ccccc2O)C1)c1ccc(Cl)c(Cl)c1 (stereo not given) | 750 nM
COCCn1c(-c2cccc(Cl)c2)nn(-c2ccc([N+](=O)[O-])cc2C#N)c1=S | 180 nM
O=C(/C=C/C=C/c1ccccc1)NCCCCCN1CCC(c2c[nH]c3ccccc23)CC1 | 1170 nM
Cc1nn(-c2ccccc2)nc1C(=O)NC1CCN(CCNC(=O)c2ccc(Cl)c(Cl)c2)CC1 | 870 nM
COc1cc2nc(N3CCN(C(=O)c4ccco4)CC3)nc(NCc3ccccc3)c2cc1OC | 170 nM
CCS(=O)(=O)N1CCN(c2nc(-c3ccccc3)nc(COC)c2Cc2ccccc2F)CC1 | 1450 nM
CCc1c(CCNCCCCCCNCc2ccc3c(c2CC)OCO3)ccc(OC)c1OC | 250 nM
CN(C)CCN(C)Cc1ccc(-c2ccc(NS(=O)(=O)c3cccc4cccnc34)cc2)cc1 | 860 nM
CNc1nc(NN=Cc2ccccc2Cl)nc(Nc2cccc(C(F)(F)F)c2)n1 | 920 nM
CCc1cc2c3c(N)nc(N)nc3ccc2n1C(C)(C)C | 10 nM
O=c1cc(NCCCNC2CCCc3c2ccc2ccccc32)[nH]c2ccccc12 (stereo not given) | 820 nM
COc1ccc(C=NNc2ccnc3cc(F)c(C)cc23)c2ccccc12 | 770 nM
Cc1cc(NC(=O)[C@H](CC(C)C)Nc2ccc(C#N)c3ccccc23)ccc1F | 780 nM
CC(C)CNCc1ccc(-c2cccc(CNC3CCN(Cc4ccccc4)CC3)c2)cc1 | 240 nM
COC(=O)c1ccc(CC(C)NCC(O)c2cc(Cl)c(N)c(Cl)c2)cc1 (stereo not given) | 880 nM
O=C(NC(Nc1ccc([N+](=O)[O-])cc1)C(Cl)(Cl)Cl)c1ccc(Cl)cc1 (stereo not given) | 780 nM
O=C(Nc1ccc([N+](=O)[O-])cc1)Nc1cc(OCC(F)(F)F)cc(OCC(F)(F)F)c1 | 470 nM
COc1ccc2nccc([C@@H](O)CN3CCC(NCc4cc5ccccc5[nH]c4=O)CC3)c2c1 | 180 nM
COc1cc(C)nc2ccc(NC(=O)c3ccc(C(=O)Nc4ccc5nc(C)cc(OC)c5c4)cc3)cc12 | 60 nM
